Key:
MPK6 [1] = biological target: T1, MPK6 (Arabidopsis thaliana, UniProt Q39026); experiment: biochemical; design: isothermal titration calorimetry, 25 °C, PBS pH 7.4, 2% DMSO
T1 construct: MPK6ΔNt (29 to 305)

MPK6 [2] = biological target: T1, MPK6; experiment: biochemical; design: biolayer interferometry (Octet Red96), GST-tagged protein on probe, 25 °C, 1:1 model; conditions: read-out: kon (M^-1s^-1)
MPK6 [3] = biological target: T1, MPK6; experiment: biochemical; design: biolayer interferometry (Octet Red96), GST-tagged protein on probe, 25 °C, 1:1 model; conditions: read-out: koff (s^-1)
MPK6 [4] = biological target: T1, MPK6; experiment: BLI and ITC with recombinant MPK6; also in vitro kinase inhibition; type: binding
[5] = biological target: CA-MPK6 (constitutively active MPK6) (Arabidopsis thaliana, UniProt Q39026, D218G/E222A); experiment: biochemical; type: binding
Sequence of CA-MPK6 (constitutively active MPK6) (Q39026 29-305 D218G/E222A limits assumed): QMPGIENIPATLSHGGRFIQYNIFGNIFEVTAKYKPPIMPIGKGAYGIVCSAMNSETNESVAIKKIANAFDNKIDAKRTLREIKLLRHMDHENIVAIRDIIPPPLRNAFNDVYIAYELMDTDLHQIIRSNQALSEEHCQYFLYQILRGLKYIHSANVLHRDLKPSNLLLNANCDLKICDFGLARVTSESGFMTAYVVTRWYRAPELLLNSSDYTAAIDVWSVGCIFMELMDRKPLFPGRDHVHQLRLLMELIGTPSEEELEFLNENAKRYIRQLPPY

T1 sequence (Q39026 29-305): as the sequence (Q39026 29-305 D218G/E222A limits assumed) above, with G190D, A194E counted along it

| Compound | Kd (MPK6 [1]) | kon (MPK6 [2]) | koff (MPK6 [3]) | Kd (MPK6 [4]) | Kd [5] |
| --- | --- | --- | --- | --- | --- |
| Nc1ncnc2c1ncn2[C@@H]1O[C@H](COP(=O)(O)OP(=O)(O)OP(=O)(O)O)[C@@H](O)[C@H]1O [ATP] | 1.2 ± 0.3 µM | 8920 M⁻¹ s⁻¹ | 0.0125 s⁻¹ | – | – |
| O=P(O)(O)C(O)c1ccc2ccccc2c1 (stereo not shown) [compound 2, hydroxy-2-naphthalenymethylphosphonic acid] | – | 3020 M⁻¹ s⁻¹ | 0.0175 s⁻¹ | 4.9 ± 0.6 µM | 58 ± 13 µM |

From PMC11797554, “Chemical genetics reveals cross-regulation of plant developmental signaling by the immune peptide-receptor pathway” (Science Advances, 2024)
